Reference: ChEMBL document CHEMBL5036347, “Design of the naphthyl-diarylpyrimidines as potent non-nucleoside reverse transcriptase inhibitors (NNRTIs) via structure-based extension into the entrance channel” (Eur J Med Chem, 2021)

Experiments:
[1] = test system: Human immunodeficiency virus 1; experiment: Anti-HIV activity against HIV-1 IIIB infected in human MT4 cells assessed as reduction in virus-induced cytopathic effect incubated for 5 days by MTT assay; format: functional, organism-based; conditions: Human immunodeficiency virus 1, IIIB, MT4, 120 h
[2] = test system: Human immunodeficiency virus 2; experiment: Anti-HIV activity against HIV2 ROD infected in human MT4 cells assessed as reduction in virus-induced cytopathic effect incubated for 5 days by MTT assay; format: functional, organism-based; conditions: Human immunodeficiency virus 2, ROD, MT4, 120 h
[3] = Cytotoxicity against human MT4 cells assessed as reduction in cell viability incubated for 5 days by MTT assay; format: cell-based; conditions: human, MT4 cells; time 5 day
[4] = test system: Human immunodeficiency virus 1; experiment: Antiviral activity against HIV1 harboring reverse transcriptase L100I mutant infected in human MT4 cells assessed as protection against virus-induced cytopathic effect incubated for 5 days by MTT assay; format: functional, organism-based; conditions: Human immunodeficiency virus 1, MT4, 120 h
[5] = test system: Human immunodeficiency virus 1; experiment: Antiviral activity against HIV1 harboring reverse transcriptase K103N mutant infected in human MT4 cells assessed as protection against virus-induced cytopathic effect incubated for 5 days by MTT assay; format: functional, organism-based; conditions: Human immunodeficiency virus 1, MT4, 120 h
[6] = test system: Human immunodeficiency virus 1; experiment: Antiviral activity against HIV1 harboring reverse transcriptase Y181C mutant infected in human MT4 cells assessed as protection against virus-induced cytopathic effect incubated for 5 days by MTT assay; format: functional, organism-based; conditions: Human immunodeficiency virus 1, MT4, 120 h
[7] = test system: Human immunodeficiency virus 1; experiment: Antiviral activity against HIV1 harboring reverse transcriptase Y188L mutant infected in human MT4 cells assessed as protection against virus-induced cytopathic effect incubated for 5 days by MTT assay; format: functional, organism-based; conditions: Human immunodeficiency virus 1, MT4, 120 h
[8] = test system: Human immunodeficiency virus 1; experiment: Antiviral activity against HIV1 harboring reverse transcriptase E138K mutant infected in human MT4 cells assessed as protection against virus-induced cytopathic effect incubated for 5 days by MTT assay; format: functional, organism-based; conditions: Human immunodeficiency virus 1, MT4, 120 h
[9] = test system: Human immunodeficiency virus 1; experiment: Antiviral activity against HIV1 harboring reverse transcriptase F227L/V106A mutant infected in human MT4 cells assessed as protection against virus-induced cytopathic effect incubated for 5 days by MTT assay; format: functional, organism-based; conditions: Human immunodeficiency virus 1, MT4, 120 h
[10] = Resistance fold, ratio of EC50 for HIV1 harboring reverse transcriptase Y181C mutant […] to EC50 for wild type HIV1 […]; format: functional
[11] = Resistance fold, ratio of EC50 for HIV1 harboring reverse transcriptase L100I mutant […] to EC50 for wild type HIV1 […]; format: functional
[12] = Resistance fold, ratio of EC50 for HIV1 harboring reverse transcriptase K103N mutant […] to EC50 for wild type HIV1 […]; format: functional
[13] = test system: Human immunodeficiency virus 1; experiment: Antiviral activity against HIV1 harboring reverse transcriptase K103N/Y181C double mutant infected in human MT4 cells assessed as protection against virus-induced cytopathic effect incubated for 5 days by MTT assay; format: functional, organism-based; conditions: Human immunodeficiency virus 1, MT4, 120 h
[14] = Selectivity index, ratio of CC50 for cytotoxicity against human MT4 cells to EC50 of Anti-HIV activity against HIV-1 IIIB infected in human MT4; format: toxicity, cell-based; conditions: read-out: Selectivity Index
[15] = Resistance fold, ratio of EC50 for HIV1 harboring reverse transcriptase Y188L mutant […] to EC50 for wild type HIV1 […]; format: functional
[16] = Resistance fold, ratio of EC50 for HIV1 harboring reverse transcriptase E138K mutant […] to EC50 for wild type HIV1 […]; format: functional
[17] = Resistance fold, ratio of EC50 for HIV1 harboring reverse transcriptase F227L/V106A double mutant […] to EC50 for wild type HIV1 […]; format: functional
[18] = Resistance fold, ratio of EC50 for HIV1 harboring reverse transcriptase K103N/Y181C double mutant […] to EC50 for wild type HIV1 […]; format: functional
[19] = target: Human immunodeficiency virus type 1 reverse transcriptase (Human immunodeficiency virus 1, UniProt Q72547); experiment: Inhibition of wild type HIV1 reverse transcriptase using oligo(dT)16 as primer measured after 40 mins by picogreen-dye based spectrofluorimetric analysis

SMILES | EC50 [1] | EC50 [2] | CC50 at 120 h [3] | EC50 [4] | EC50 [5] | EC50 [6] | EC50 [7] | EC50 [8] | EC50 [9] | Ratio EC50 [10] | Ratio EC50 [11] | Ratio EC50 [12] | EC50 [13] | selectivity ratio [14] | Ratio EC50 [15] | Ratio EC50 [16] | Ratio EC50 [17] | Ratio EC50 [18] | IC50 [19] | IC50 [5]
CCCCCC(C)Nc1cc(Oc2c(OC)cc3cc(C#N)ccc3c2OC)nc(Nc2ccc(C#N)cc2)n1 (stereo not given) | 1540 nM | > 1 mM | > 125 µM | 157000 nM | 1330 nM | 40000 nM | > 1000 µM | 2220 nM | > 1 mM | 26 | 102 | 1 | > 1000 µM | > 151 | >650 | 1 | >649 | >649 | 1200 nM | –
CCC(C)Nc1cc(Oc2c(OC)cc3cc(C#N)ccc3c2OC)nc(Nc2ccc(C#N)cc2)n1 (stereo not given) | 45 nM | > 1 mM | > 125 µM | 1380 nM | 420 nM | 430 nM | 3.97 µM | 120 nM | > 1 mM | 10 | 31 | 9 | 3.69 µM | > 5670 | 89 | 3 | >22472 | 83 | 260 nM | –
COc1cc2cc(C#N)ccc2c(OC)c1Oc1cc(NC(C)(C)C)nc(Nc2ccc(C#N)cc2)n1 | 52 nM | > 1 mM | > 125 µM | 1890 nM | 75 nM | 650 nM | 6.51 µM | 180 nM | > 1 mM | 12 | 36 | 1 | 28.5 µM | > 4830 | 125 | 4 | >19231 | 548 | 310 nM | –
COc1cc2cc(C#N)ccc2c(OC)c1Oc1cc(NC2CCC2)nc(Nc2ccc(C#N)cc2)n1 | 37 nM | > 1 mM | > 125 µM | 1020 nM | – | 330 nM | 2.47 µM | 84 nM | 0.145 mM | 9 | 28 | 1 | 3.13 µM | > 7040 | 68 | 5 | 3981 | 86 | 110 nM | 44 nM
CCCC(CCC)Nc1cc(Oc2c(OC)cc3cc(C#N)ccc3c2OC)nc(Nc2ccc(C#N)cc2)n1 | 710 nM | > 1 mM | > 125 µM | 128000 nM | 360 nM | 26400 nM | > 1000 µM | 1590 nM | > 1 mM | 37 | 181 | 1 | > 1000 µM | > 330 | >1416 | 2 | >1416 | >1416 | 610 nM | –
